# Source: patent US10730870B2, “Compounds and methods for the enhanced degradation of targeted proteins” (Arvinas, Inc., priority 2015, dated 2020)
# pIC50: −log10 of the molar value.
# Target: VHL (Homo sapiens (Human), UniProt P40337)
# Assay: VHL fluorescence polarization (FP) competition assay
# Type: binding
Compound,pIC50 (0.25% in DMSO),pIC50 (1% in DMSO),pIC50 (10% in DMSO)
"Cc1ncsc1-c1ccc(CNC(=O)[C@@H]2C[C@@H](O)CN2C(=O)[C@@H](NC(=O)C(C)(C)C)C(C)(C)C)cc1 [Example 14, (2S,4R)-1-((S)-3,3-dimethyl-2-pivalamidobutanoyl)-4-hydroxy-N-(4-(4-methylthiazol-5-yl)benzyl)pyrrolidine-2-carboxamide]",5.15,5.33,4.88
"COc1cccc2c1C(=O)N([C@H](C(=O)N1C[C@H](O)C[C@H]1C(=O)NCc1ccc(-c3scnc3C)cc1)C(C)C)C2 [Example 15, (2S,4R)-4-hydroxy-1-((S)-2-(7-methoxy-1-oxoisoindolin-2-yl)-3-methylbutanoyl)-N-(4-(4-methylthiazol-5-yl)benzyl)pyrrolidine-2-carboxamide]",5.91,4.61,4.09
"Cc1ncsc1-c1ccc(CNC(=O)[C@@H]2C[C@@H](O)CN2C(=O)[C@H](C(C)C)N2Cc3cc(F)ccc3C2=O)cc1 [Example 16, (2S,4R)-1-((S)-2-(5-fluoro-1-oxoisoindolin-2-yl)-3-methylbutanoyl)-4-hydroxy-N-(4-(4-methylthiazol-5-yl)benzyl)pyrrolidine-2-carboxamide]",5.53,6.58,5.74
"Cc1ncsc1-c1ccc(CNC(=O)[C@@H]2C[C@@H](O)CN2C(=O)[C@H](C(C)C)N2Cc3ccc(C#N)cc3C2=O)cc1 [Example 17, (2S,4R)-1-((S)-2-(6-cyano-1-oxoisoindolin-2-yl)-3-methylbutanoyl)-4-hydroxy-N-(4-(4-methylthiazol-5-yl)benzyl)pyrrolidine-2-carboxamide]",5.66,6.50,5.97
"Cc1ncsc1-c1ccc(CNC(=O)[C@@H]2C[C@@H](O)CN2C(=O)[C@@H](NC(=O)CC(C)C)C(C)(C)C)cc1 [Example 18, (2S,4R)-1-((S)-3,3-dimethyl-2-(3-methylbutanamido)butanoyl)-4-hydroxy-N-(4-(4-methylthiazol-5-yl)benzyl)pyrrolidine-2-carboxamide]",5.26,6.07,5.57
"Cc1ncsc1-c1ccc(CNC(=O)[C@@H]2C[C@@H](O)CN2C(=O)[C@@H](NC(=O)CC2CCCCC2)C(C)(C)C)cc1 [Example 19, (2S,4R)-1-((S)-2-(2-cyclohexylacetamido)-3,3-dimethylbutanoyl)-4-hydroxy-N-(4-(4-methylthiazol-5-yl)benzyl)pyrrolidine-2-carboxamide]",5.42,6.03,5.78
"Cc1ncsc1-c1ccc(CNC(=O)[C@@H]2C[C@@H](O)CN2C(=O)[C@@H](NC(=O)CCC2CCCCC2)C(C)(C)C)cc1 [Example 20, (2S,4R)-1-((S)-2-(3-cyclohexylpropanamido)-3,3-dimethylbutanoyl)-4-hydroxy-N-(4-(4-methylthiazol-5-yl)benzyl)pyrrolidine-2-carboxamide]",5.30,5.98,5.94
"CSC[C@H](NC(=O)CCC(C)C)C(=O)N1C[C@H](O)C[C@H]1C(=O)NCc1ccc(-c2scnc2C)cc1 [Example 22, (2S,4R)-4-hydroxy-1-((R)-2-(4-methylpentanamido)-3-(methylthio)propanoyl)-N-(4-(4-methylthiazol-5-yl)benzyl)pyrrolidine-2-carboxamide]",–,5.20,5.08
"CC(C)[C@@H](C(=O)N1C[C@H](O)C[C@H]1C(=O)NCc1ccc(Br)cc1)N1Cc2ccccc2C1=O [Example 23, (2S,4R)—N-(4-bromobenzyl)-4-hydroxy-1-((S)-3-methyl-2-(1-oxoisoindolin-2-yl)butanoyl)pyrrolidine-2-carboxamide]",5.94,5.60,5.22
"CC(C)[C@@H](C(=O)N1C[C@H](O)C[C@H]1C(=O)N[C@@H](C)c1ccc(Br)cc1)N1Cc2ccccc2C1=O [Example 24, (2S,4R)—N—((S)-1-(4-bromophenyl)ethyl)-4-hydroxy-1-((S)-3-methyl-2-(1-oxoisoindolin-2-yl)butanoyl)pyrrolidine-2-carboxamide]",5.86,5.06,4.55
"Cc1ncsc1-c1ccc(CNC(=O)[C@@H]2C[C@@H](O)CN2C(=O)[C@H](C(C)C)N2Cc3cc(Br)ccc3C2=O)cc1 [Example 25, (2S,4R)-1-((S)-2-(5-bromo-1-oxoisoindolin-2-yl)-3-methylbutanoyl)-4-hydroxy-N-(4-(4-methylthiazol-5-yl)benzyl)pyrrolidine-2-carboxamide]",5.62,5.88,5.78
"Cc1ncsc1-c1ccc(CNC(=O)[C@@H]2C[C@@H](O)CN2C(=O)[C@H](C(C)C)N2Cc3c(Br)cccc3C2=O)cc1 [Example 26, (2S,4R)-1-((S)-2-(4-bromo-1-oxoisoindolin-2-yl)-3-methylbutanoyl)-4-hydroxy-N-(4-(4-methylthiazol-5-yl)benzyl)pyrrolidine-2-carboxamide]",5.53,6.03,6.36
"Cc1ncsc1-c1ccc(CNC(=O)[C@@H]2C[C@@H](O)CN2C(=O)[C@@H](NC(=O)C(C)C)C(C)(C)C)cc1 [Example 27, (2S,4R)-4-hydroxy-1-((S)-2-isobutyramido-3,3-dimethylbutanoyl)-N-(4-(4-methylthiazol-5-yl)benzyl)pyrrolidine-2-carboxamide]",~5.80,5.52,5.08
"Cc1ncsc1-c1ccc(CNC(=O)[C@@H]2C[C@@H](O)CN2C(=O)[C@@H](NC(=O)CCC(C)C)C(C)(C)C)cc1 [Example 28, (2S,4R)-1-((S)-3,3-dimethyl-2-(4-methylpentanamido)butanoyl)-4-hydroxy-N-(4-(4-methylthiazol-5-yl)benzyl)pyrrolidine-2-carboxamide]",5.35,5.66,5.44
"Cc1ncsc1-c1ccc(CNC(=O)[C@@H]2C[C@@H](O)CN2C(=O)[C@@H](NC(=O)c2ccccc2)C(C)(C)C)cc1 [Example 29, (2S,4R)-1-((S)-2-benzamido-3,3-dimethylbutanoyl)-4-hydroxy-N-(4-(4-methylthiazol-5-yl)benzyl)pyrrolidine-2-carboxamide]",5.62,6.04,5.73
"CC[C@H](C)[C@@H](C(=O)N1C[C@H](O)C[C@H]1C(=O)NCc1ccc(-c2scnc2C)cc1)N1Cc2ccccc2C1=O [Example 30, (2S,4R)-4-hydroxy-1-((2S,3S)-3-methyl-2-(1-oxoisoindolin-2-yl)pentanoyl)-N-(4-(4-methylthiazol-5-yl)benzyl)pyrrolidine-2-carboxamide]",5.64,6.24,6.07
"CC[C@H](C)[C@H](NC(=O)CCC(C)C)C(=O)N1C[C@H](O)C[C@H]1C(=O)NCc1ccc(-c2scnc2C)cc1 [Example 31, (2S,4R)-4-hydroxy-1-((2S,3S)-3-methyl-2-(4-methylpentanamido)pentanoyl)-N-(4-(4-methylthiazol-5-yl)benzyl)pyrrolidine-2-carboxamide]",5.49,5.89,5.68
"Cc1ncsc1-c1ccc(CNC(=O)[C@@H]2C[C@@H](O)CN2C(=O)[C@@H](NCCC(C)C)C2CCCC2)cc1 [Example 32, (2S,4R)-1-((S)-2-cyclopentyl-2-(isopentylamino)acetyl)-4-hydroxy-N-(4-(4-methylthiazol-5-yl)benzyl)pyrrolidine-2-carboxamide]",5.65,5.94,5.47
